The source of these data is patent publication US20090093460A1, “Compositions” (AstraZeneca AB, priority 2003, published 2009).

Test [1] has as its target Adrenergic α1* Non-Selective. Nature of the test: Radioligand binding 203500 Adrenergic α1* Non-Selective. Also on record: species or system rat. The text has this: Receptor binding methods, α-adrenergic nonselective, are provided below.
The test system of the next test is mice. The experiment in a line: Tail suspension test. In kind it is in vivo, mouse. The method, then: Antidepressant activity of 11-piperazin-1-yldibenzo[b,f][1,4]thiazepine was assessed in mice according to the tail suspension test. As shown in the results below, 11-piperazin-1-yldibenzo[b,f][1,4]thiazepine has antidepressant activity in mice.
In a first experiment, mice (n=10/group) were treated with vehicle, 2.0, 5.0, or 10.0 mg/kg of 11-piperazin-1-yldibenzo[b,f][1,4]thiazepine s.c. 15 minutes prior to the test session. Mice were suspended from their tails for 7 minutes. During the last 5 minutes of the test, the duration of immobility was recorded. In a second experiment, mice (n=10/group) were treated with vehicle, 30 mg/kg 11-piperazin-1-yldibenzo[b,f][1,4]thiazepine, or 30 mg/kg fluoxetine p.o. 60 minutes prior to the test session. Mice were suspended from their tails for 7 minutes. During the last 5 minutes of the test, the duration of immobility was recorded.

For the next test, the target named is T1, Adrenergic α1B (Rattus norvegicus, UniProt P15823).
T1 construct: 203200
T1 sequence (P15823 1-515): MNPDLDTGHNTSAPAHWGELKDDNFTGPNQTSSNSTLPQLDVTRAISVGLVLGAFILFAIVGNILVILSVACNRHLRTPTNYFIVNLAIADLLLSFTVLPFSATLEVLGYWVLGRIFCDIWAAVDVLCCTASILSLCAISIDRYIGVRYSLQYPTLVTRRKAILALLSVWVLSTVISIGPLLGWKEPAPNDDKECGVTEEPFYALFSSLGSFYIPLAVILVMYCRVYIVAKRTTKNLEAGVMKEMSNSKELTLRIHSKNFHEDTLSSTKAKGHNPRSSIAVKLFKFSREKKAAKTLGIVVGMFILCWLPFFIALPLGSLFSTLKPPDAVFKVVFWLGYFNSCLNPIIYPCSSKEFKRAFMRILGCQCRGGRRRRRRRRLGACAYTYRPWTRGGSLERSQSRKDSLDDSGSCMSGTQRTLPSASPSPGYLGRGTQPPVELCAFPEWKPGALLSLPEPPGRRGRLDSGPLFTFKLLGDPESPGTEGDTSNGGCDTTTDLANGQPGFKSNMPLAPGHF
The experiment in a line: Radioligand binding 203200 Adrenergic α1B. The source says: Receptor binding methods, (α-adrenergic subtype specific, are provided below.

A further test has as its system rats. Nature of the test: Geller-Seifter conflict test. The class given is in vivo, rat. The procedure:
Anxiolytic activity of 11-piperazin-1-yldibenzo[b,f][1,4]thiazepine was tested in rats according to the Geller-Seifter conflict test. Efficacy results are presented in Table 1 and plasma levels in satellite exposure animals at 0.25 hours after administration are provided in Table 2.
Subjects: 30 Male Long Evans rats were used. Subjects weighed 350-450 g at the time of testing, and were food restricted to 85% of free feeding weight by post session feeding with approximately 15 g of standard rat chow per day. All animals had free access to water except during experimental testing. Subjects were individually housed throughout the course of the experiment under a 12 hour light/dark cycle.
Apparatus: Standard 2-lever operant chambers were used (Med Associates). The chambers were fitted with two retractable response levers and a stimulus lamp over each of the 2 levers. A pellet food dispenser delivered 45 mg food pellets, (Bio Serv) to a cup located inside of the chamber below and between the 2 response levers. A lamp at the top and back of the chamber served as houselights. […] All events in the chambers were controlled and monitored by a microprocessor. […]
Several doses were tested on a given day in different subjects. […] The dependent variables recorded were the rate of responding in unpunished and punished components (total responses/total time under the component), the number of shocks delivered. […]

Molecules are shown by their SMILES. Where two headings read alike, the source gives them in different places.

`c1ccc2c(c1)N=C(N1CCNCC1)c1ccccc1S2` [11-piperazin-1-yldibenzo[b,f][1,4]thiazepine]: the IC50 in test [1] came to 0.0693 µM. Further, the Ki in test [1] was 0.0372 µM; at Adrenergic α1B (read-out: ki), 0.075 ± 0.009 µM; on Adrenergic α1B (α1B, read-out: Affinity) it was 0.075 µM. In addition, the “% INH.” value in test [1] (0.1 μM) is 61%. The “reduction of immobility, fraction of that of the vehicle control group” value is “more than ½” with mice (10.0 mg/kg s.c.) and “more than ½” in the test with mice (30 mg/kg p.o., 60 minutes prior). Moreover, the “duration of immobility compared with controls” value in the test on mice (10.0 mg/kg s.c., p<0.01) was “significantly reduced immobility”. Besides, the “duration of immobility compared to the vehicle control group” value with mice (30 mg/kg p.o., 60 minutes prior, p<0.01) is “significantly reduced immobility”. The duration of immobility entry with mice (all doses tested: 2.0, 5.0, 10.0 mg/kg s.c., 15 minutes prior) is reported as “reduced immobility”. At Adrenergic α1B, this compound had a n of 1.1 ± 0.024. Besides, the inhibition at 0.1 µM on Adrenergic α1B (0.1 μM) was found to be 50%. Further, in the test on rats (doses of 2, 5, and 10 mg/kg s.c.), the “rates of responding in the punished component” value is reported as “Significant increases”. The Inactive dose in the test on rats (rats, 15 minute pre-treatment) turned out to be 1 mg/kg s.c.

In general, IC50 refers to the midpoint of a concentration-inhibition curve. One may read the inhibition as the change of the read-out against control, counted positive when it falls. A lower inhibition goes with a weak effect.
